Experimental data taken from US9909219B2, “Slurry biocide” (ECOLAB USA INC., priority 2014, dated 2018).

Tests used:
[1] = tested on: Sulfate Reducing Bacteria; assay: Biocide treatment of pipeline makeup water (river water): sulfate reducing bacteria count; format: cell-based
From the text: (§1) Two water samples collected directly of makeup water of a pipeline sourced form river water, were submitted to biocide treatment. One sample was highly contaminated with microorganisms (1700 CFU/mL) while the other was less contaminated (120 CFU/mL). […] There is a dramatic reduction in required dosage using oxidizing biocide ([…]) (Tests 3, 4 and 7).

Total Aerobic Bacteria = assay: Biocide treatment of pipeline makeup water (river water): total aerobic bacteria count; format: cell-based
From the text: as §1

Row | Structure (SMILES) | Final Count Sulfate Reducing Bacteria ([1]; Test 3, initial count 30 CFU/mL, dosage 5 ppm) [CFU/mL] | Final Count Sulfate Reducing Bacteria ([1]; Test 4, initial count <10 CFU/mL, dosage 4 ppm) [CFU/mL] | Final Count Sulfate Reducing Bacteria ([1]; Test 7, initial count <10 CFU/mL, dosage 1.5 ppm) [CFU/mL] | Final Count Total Aerobic Bacteria (Total Aerobic Bacteria; Test 3, initial count 1700 CFU/mL, dosage 5 ppm) [CFU/mL] | Final Count Total Aerobic Bacteria (Total Aerobic Bacteria; Test 4, initial count 120 CFU/mL, dosage 4 ppm) [CFU/mL] | Final Count Total Aerobic Bacteria (Total Aerobic Bacteria; Test 7, initial count 120 CFU/mL, dosage 1.5 ppm) [CFU/mL] | Final Count Sulfate Reducing Bacteria ([1]; Test 1, initial count 30 CFU/mL, dosage 500 ppm) [CFU/mL] | Final Count Sulfate Reducing Bacteria ([1]; Test 5, initial count <10 CFU/mL, dosage 500 ppm) [CFU/mL] | Final Count Total Aerobic Bacteria (Total Aerobic Bacteria; Test 1, initial count 1700 CFU/mL, dosage 500 ppm) [CFU/mL] | Final Count Total Aerobic Bacteria (Total Aerobic Bacteria; Test 5, initial count 120 CFU/mL, dosage 500 ppm) [CFU/mL]
1 | [O][Cl+][O-] [ClO2, chlorine dioxide] | <10 | <10 | <10 | 30 | <27 | <27 | – | – | – | –
2 | O=CCCCC=O [A, Glutaraldehyde] | – | – | – | – | – | – | 10 | <10 | 330 | <27
